# Measurements from patent US20130052172A1, “METHODS FOR DIAGNOSING AND TREATING CARDIAC DEFECTS” (priority 2011, published 2013).
# Values joined by “and” are separate entries in the source; they are usually repeats but may differ in a detail not shown here. Equal entries are not always repeated. “Also recorded” adds a separate entry of the source.
# How the values were obtained:
# rats = assay: Myocardial ischemia/reperfusion by the protocol of example 3 (model not given); type: in vivo, rat; details: antibiotics in drinking water
# Excerpt: In the following example, methods for assaying myocardial infarction in vitro and in vivo in rats as determined by ischemia/reperfusion studies are described.
# An anesthetized rat model was used for in vivo ischemia/reperfusion studies using the general surgical protocol and determination of infarct size (IS) described in “K(ATP) opener-induced delayed cardioprotection: involvement of sarcolemmal and mitochondrial K(ATP) channels, free radicals and MEK½” (Gross, E. et al., J. Mol. Cell. Cardiol. 35, 985-992, 2003), the entirety of which is incorporated herein by reference. Briefly, following anesthesia, a tracheotomy for artificial ventilation was performed, with the left common carotid artery cannulated for blood pressure and heart rate measurements. A thoracotomy was performed at the fifth intercostal space, the pericardium was excised, and a silk ligature was placed distal to the left atrial appendage that spanned to the sternal portion of the left ventricle, which included the left anterior descending coronary artery. Occlusion of the area described [area at risk (AAR)] was created by placing ends of the ligature through a polypropylene tube and fixing the snare to the epicardial surface with a hemostat. After 30 min, the hemostat was released to reperfuse the AAR. Following 2 h of reperfusion, the ligature was again occluded, and the AAR was determined by patent-blue negative staining. The heart was then excised, cross-sectioned into 4 to 5 slices, and separated into normal zone and AAR. Pieces were incubated in 1% 2,3,5-triphenyltetrazolium chloride to determine IS. The heart was then incubated overnight in 10% formaldehyde, and infarcted tissue was dissected from the AAR. IS was expressed as a percentage of the AAR (IS/AAR). Leptin (0.12 μg/kg) was administered intravenously as a bolus at 24 and 12 h before ischemia. Amino acids were administered intravenously as a bolus at 24 and 12 hours before ischemia or dissolved in the drinking water and given 48 hours before ischemia.
# (§1) For in vitro ischemia/reperfusion studies, hearts were perfused retrogradely, as described previously in Baker, J. et al. (Am. J. Physiol. Heart Circ. Physiol., 2000), the entirety of which is incorporated herein by reference. Briefly, hearts were perfused with modified Krebs-Henseleit buffer (120 mM NaCl, 25 mM NaHCO3, 4.7 mM KCl, 1.2 mM KH2PO4, 1.20 mM MgSO4, 11 mM glucose, and 1.8 mM CaCl2) bubbled with 95% O2-5% CO2 for a 40-minute stabilization period and subjected to 25 minutes of global no-flow ischemia, followed by 180 minutes of reperfusion. Before use, all perfusion fluids were filtered through cellulose acetate membranes with a pore size of 5.0 μm to remove particulate matter. Hearts were kept in temperature-controlled chambers to maintain myocardial temperature at 37° C. A balloon connected to a pressure transducer was inserted into the left ventricle to monitor cardiac function. For some experiments, hearts were stabilized for 25 minutes and then perfused with vancomycin or a mixture of antibiotics for 15 minutes before ischemia/reperfusion. During the initial 40 minute reperfusion period, recovery of mechanical function was measured as left ventricular developed pressure (LVDP) under steady-state conditions and expressed as a percentage of preischemic LVDP. At the end of the 3 hour reperfusion period, hearts were processed and stained with 2,3,5-triphenyltetrazolium chloride dye for IS determination.
# leptin = assay: Plasma cytokine analysis (leptin); type: in vivo, rat; details: vancomycin in drinking water, d 6 vs d 0
# Description: The concentration of cytokines in blood of rats treated with vancomycin was quantified to identify antibiotic-induced changes. […] Blood samples were kept on ice for 30 min and then centrifuged at 1000 g for 10 min at 4° C. to obtain plasma. Plasma samples were then analyzed to determine the concentration of 23 cytokines (Eve Technologies, Calgary, AB, Canada). Antibiotic was administered continuously via drinking water as described in example 1.
# intestinal microbiota = assay: Fecal microbiota abundance by 16S/18S rRNA quantitative PCR; type: in vivo, rat
# Description: In the following example, methods for quantifying microbiota abundance in rat feces are described. Fresh fecal pellets were obtained from each rat prior to (day 0) and at day 6 to 7 post treatment. Pellets were homogenized in 1 ml PBS. 200 μl of homogenate was used for microbial DNA isolation using a QIAamp DNA Stool Mini Kit (Qiagen, Valencia, Calif.). Isolated DNA samples were subjected to quantitative PCR using an iCycler (Bio-Rad, Hercules, Calif.) for microbial population enumeration. PCR reaction mixture consisted of 50% iQ SYBR Green Supermix (Bio-Rad), 0.4 μM forward and reverse primers, and 3.8% template solution in RNase/DNase free water. Primer sets specific for 16s and 18s rRNA genes of particular microbial phylum, class, genus, and species (M. smithii and L. plantarum) along with 20 reaction temperature and reference strains are detailed in FIG. 2 and Table 1.
# isolated hearts = assay: In vitro global ischemia/reperfusion of isolated perfused hearts, infarct size and recovery of LVDP; parameters: species or system rat
# Description: as §1
compound,measurement,setting,value
"CN[C@H](CC(C)C)C(=O)N[C@H]1C(=O)N[C@@H](CC(N)=O)C(=O)N[C@H]2C(=O)N[C@H]3C(=O)N[C@H](C(=O)N[C@H](C(=O)O)c4cc(O)cc(O)c4-c4cc3ccc4O)[C@H](O)c3ccc(c(Cl)c3)Oc3cc2cc(c3O[C@@H]2O[C@H](CO)[C@@H](O)[C@H](O)[C@H]2O[C@H]2C[C@](C)(N)[C@H](O)[C@H](C)O2)Oc2ccc(cc2Cl)[C@H]1O [vancomycin, Vancomycin]",response of susceptibility to ischemia/reperfusion injury,rats; Dahl S rats,sensitive
same,response of susceptibility to ischemia/reperfusion injury,rats; Sprague Dawley rats,intermediate response
same,response of susceptibility to ischemia/reperfusion injury,rats; WAG/RijCmcr rats,resistant
same,decrease in circulating leptin,leptin,38±4% and 38%
same,total bacterial/microbial numbers in feces,"intestinal microbiota; oral antibiotic in drinking water, Dahl S rats",reduced total bacterial numbers; also recorded: reduced total microbial numbers; also recorded: reduce overall bacterial numbers
same,change of Bacilli abundance in feces,intestinal microbiota; oral antibiotic treatment,increased two fold
same,change of Lactobacillales abundance in feces,intestinal microbiota; oral antibiotic treatment,increase abundance
same,change of Proteobacteria abundance in feces,intestinal microbiota; oral antibiotic treatment,increase abundance
same,increase of Proteobacteria in feces,intestinal microbiota; oral antibiotic treatment,120 fold
same,effect on IS when added directly to coronary perfusate,"isolated hearts; 1 μM in perfusate, in vitro ischemia/reperfusion",no reduction in IS; also recorded: no effect on severity of myocardial infarction; also recorded: did not reduce IS in vitro
same,effect on infarct size of isolated hearts,"isolated hearts; antibiotic added to the drinking water, then excluded from coronary circulation",reduced IS
same,decrease in IS,"isolated hearts; antibiotic in drinking water, then excluded from coronary perfusate, in vitro ischemia/reperfusion",29%
same,time after treatment ceased at which cardioprotection was lost,isolated hearts; vancomycin in drinking water,3 days
same,time of treatment within which cardioprotection was established,isolated hearts; vancomycin in drinking water,≤ 2 days
